Laboratory results published in US12617756B2 (ABIVAX, priority 2019, dated 2026).

System: RSV A2
Test: Screening for RSV inhibition using Viral ToxGlo assay (cytopathic effect inhibition in HEp-2 cells)
Type: cell-based, Respiratory Syncytial Virus (RSV)
Conditions: human respiratory syncytial virus; RSV A2 in HEp-2 cells, MOI 0.5, 72h p.i., cytopathic effect inhibition relative to virus control, Viral ToxGlo luminescence
How it was run: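 HEp-2 cells in 2% FBS medium infected with RSV A2 right after compound addition (max 1% DMSO), uninfected wells used for cytotoxicity. After 72 h p.i. at 37 °C/5% CO2, cell viability read by Viral ToxGlo luminescence as measure of cytopathic effect.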

Question: `Cc1c(C(=O)NCCC(C)C)ccnc1Nc1ccc(C(=O)N=C2NCCN2)cc1C1CC1` [Compound 40, 2-[(2-cyclopropyl-4-{[(2E)-imidazolidin-2-ylidene]carbamoyl}phenyl)amino]-3-methyl-N-(3-methylbutyl)pyridine-4-carboxamide] was tested. Which EC50 did it give?
Answer: Its EC50 is 69.2 nM.

Question: Which EC50 does the source give for `CC(C)CNC(=O)c1ccccc1Nc1ccc(C(=O)N=C2NCCN2)cc1C(C)(C)C` [Compound 56, 3-tert-butyl-N-[(2E)-imidazolidin-2-ylidene]-4-({2-[(2-methylpropyl)carbamoyl]phenyl}amino)benzamide] here?
Answer: The EC50 was 174 nM.

Question: For `Cc1c(Nc2ccc(C(=O)N=C3NCCN3)cc2C2CC2)cccc1C(=O)NC1(C#N)CC1` [Compound 64, 4-({3-[(1-cyanocyclopropyl)carbamoyl]-2-methylphenyl}amino)-3-cyclopropyl-N-[(2Z)-imidazolidin-2-ylidene]benzamide], which EC50 is on record?
Answer: The EC50 was 950 nM.

Question: How did the EC50 turn out when `CC(C)C(=O)Nc1cccc(Nc2ccc(C(=O)N=C3NCCN3CC(F)F)cc2C2CC2)c1` [Compound 113, 3-cyclopropyl-N-[1-(2,2-difluoroethyl)imidazolidin-2-ylidene]-4-{[3-(2-methylpropanamido)phenyl]amino}benzamide] was run?
Answer: Its EC50 is 59.9 nM.

Question: For `O=C(N=C1NCCN1)c1cc(F)c(Nc2nccc(C(=O)N3C[C@H]4C[C@@H]3CO4)c2Cl)c(C2CC2)c1` [Compound 154, 4-({3-chloro-4-[(1R,4R)-2-oxa-5-azabicyclo[2.2.1]heptane-5-carbonyl]pyridin-2-yl}amino)-3-cyclopropyl-5-fluoro-N-[imidazolidin-2-ylidene]benzamide], which EC50 is on record?
Answer: The EC50 was 69.8 nM.

Question: With `O=C(N=C1NCCN1)c1cc(F)c(Nc2nccc(C(=O)N3C[C@@H]4C[C@H]3CO4)c2F)c(C2CC2)c1` [Compound 159, 3-cyclopropyl-5-fluoro-4-({3-fluoro-4-[(1S,4S)-2-oxa-5-azabicyclo[2.2.1]heptane-5-carbonyl]pyridin-2-yl}amino)-N—[imidazolidin-2-ylidene]benzamide] as the compound, how does the EC50 read?
Answer: Its EC50 is 225 nM.

Question: With `CC(C)NC(=O)c1cccc(Nc2c(F)cc(C(=O)N=C3NCCN3)cc2C2CC2)c1F` [Compound 130, 3-cyclopropyl-5-fluoro-4-({2-fluoro-3-[(propan-2-yl)carbamoyl]phenyl}amino)-N-[imidazolidin-2-ylidene]benzamide] as the compound, how does the EC50 read?
Answer: Its EC50 is 7.3 nM.

Question: Which EC50 does the source give for `O=C(N=C1NCCN1)c1ccc(Nc2cccc(C(=O)N3CCOCC3)c2C2CC2)c(C(F)(F)F)c1` [Compound 42, 4-{[2-cyclopropyl-3-(morpholine-4-carbonyl)phenyl]amino}-N-[(2Z)-imidazolidin-2-ylidene]-3-(trifluoromethyl)benzamide] here?
Answer: Its EC50 is 78.4 nM.

Question: With `CC1(NC(=O)c2cccc(Nc3ccc(C(=O)N=C4NCCN4)cc3C3CC3)c2)CC1` [Compound 14, 3-cyclopropyl-N-[(2Z)-imidazolidin-2-ylidene]-4-({3-[(1-methylcyclopropyl)carbamoyl]phenyl}amino)benzamide] as the compound, how does the EC50 read?
Answer: The EC50 was 14.4 nM.

Question: `CC1(NC(=O)c2cccc(Nc3ccc(C(=O)N=C4NCCN4)cc3C3CCCO3)c2)CC1` (stereo not drawn) [Compound 140, N-[imidazolidin-2-ylidene]-4-({3-[(1-methylcyclopropyl)carbamoyl]phenyl}amino)-3-(oxolan-2-yl)benzamide] was tested. Which EC50 did it give?
Answer: Its EC50 is 227 nM.

Question: `O=C(N=C1NCCN1)c1ccc(Nc2cccc(C(=O)NCC3CCCO3)c2Cl)c(C2CC2)c1` (stereo not drawn) [Compound 109, 4-[(2-chloro-3-{[(oxolan-2-yl)methyl]carbamoyl}phenyl)amino]-3-cyclopropyl-N-[(2E)-imidazolidin-2-ylidene]benzamide] was tested. Which EC50 did it give?
Answer: The EC50 was 45 nM.

Question: Which EC50 does the source give for `CC(C)(C)c1cc(C(=O)N=C2NCCN2)ccc1Nc1cccc(C(=O)NCCC2CCCCO2)c1` (stereo not drawn) [Compound 35, 3-tert-butyl-N-[(2E)-imidazolidin-2-ylidene]-4-[(3-{[2-(oxan-2-yl)ethyl]carbamoyl}phenyl)amino]benzamide] here?
Answer: Its EC50 is 51.6 nM.

Question: How did the EC50 turn out when `CC(C)(C)c1cc(C(=O)N=C2NCCN2)ccc1Nc1cccc(C(=O)NCCC2CCCOC2)c1` (stereo not drawn) [Compound 33, 3-tert-butyl-N-[(2E)-imidazolidin-2-ylidene]-4-[(3-{[2-(oxan-3-yl)ethyl]carbamoyl}phenyl)amino]benzamide] was run?
Answer: The EC50 was 50.2 nM.

Question: How did the EC50 turn out when `CC(C)(C)c1cc(C(=O)N=C2NCCN2)ccc1Nc1cccc(OCC2COCCO2)c1` (stereo not drawn) [Compound 52, 3-tert-butyl-4-({3-[(1,4-dioxan-2-yl)methoxy]phenyl}amino)-N-[(2E)-imidazolidin-2-ylidene]benzamide] was run?
Answer: The EC50 was 142 nM.

Question: `CC(C)(C)c1cc(C(=O)N=C2NCCN2)ccc1Nc1cc(C(=O)NCCC2CCOCC2)ccn1` [Compound 74, 2-[(2-tert-butyl-4-{[(2E)-imidazolidin-2-ylidene]carbamoyl}phenyl)amino]-N-[2-(oxan-4-yl)ethyl]pyridine-4-carboxamide] was tested. Which EC50 did it give?
Answer: The EC50 was 1310 nM.

Question: `CC(C)CCNC(=O)c1ccnc(Nc2ccc(C(=O)N=C3NCCN3)cc2C(C)(C)C)c1` [Compound 55, 2-[(2-tert-butyl-4-{[(2E)-imidazolidin-2-ylidene]carbamoyl}phenyl)amino]-N-(3-methylbutyl)pyridine-4-carboxamide] was tested. Which EC50 did it give?
Answer: The EC50 was 168 nM.

Question: For `O=C(N=C1NCCN1)c1ccc(Nc2cccc(C(=O)N3CCOCC3C(F)(F)F)c2Cl)c(C2CC2)c1` (stereo not drawn) [Compound 122, 4-({2-chloro-3-[3-(trifluoromethyl)morpholine-4-carbonyl]phenyl}amino)-3-cyclopropyl-N—[imidazolidin-2-ylidene]benzamide], which EC50 is on record?
Answer: The EC50 was 7.8 nM.

Question: How did the EC50 turn out when `CC(C)NC(=O)c1cccc(Nc2ccc(C(=O)N=C3NCCN3)cc2C(C)(C)C)c1` [Compound 19, 3-tert-butyl-N-[(2E)-imidazolidin-2-ylidene]-4-({3-[(propan-2-yl)carbamoyl]phenyl}amino)benzamide] was run?
Answer: Its EC50 is 22.8 nM.

Question: With `CC1(NC(=O)c2cccc(Nc3c(F)cc(C(=O)N=C4NCCN4)cc3C3CC3)c2F)CC1` [Compound 143, 3-cyclopropyl-5-fluoro-4-({2-fluoro-3-[(1-methylcyclopropyl)carbamoyl]phenyl}amino)-N-[imidazolidin-2-ylidene]benzamide] as the compound, how does the EC50 read?
Answer: Its EC50 is 59.7 nM.

Question: With `CC(C)NC(=O)c1ccccc1Nc1ccc(C(=O)N=C2NCCN2)cc1C(C)(C)C` [Compound 54, 3-tert-butyl-N-[(2E)-imidazolidin-2-ylidene]-4-({2-[(propan-2-yl)carbamoyl]phenyl}amino)benzamide] as the compound, how does the EC50 read?
Answer: The EC50 was 166 nM.

Question: How did the EC50 turn out when `O=C(N=C1NCCN1)c1ccc(Nc2cccc(C(=O)NC3CCS(=O)(=O)CC3)c2Cl)c(C2CC2)c1` [Compound 94, 4-({2-chloro-3-[(1,1-dioxo-1λ^6-thian-4-yl)carbamoyl]phenyl}amino)-3-cyclopropyl-N-[(2E)-imidazolidin-2-ylidene]benzamide] was run?
Answer: The EC50 was 240 nM.

Question: For `CC1(NC(=O)c2nccc(Nc3c(F)cc(C(=O)N=C4NCCN4)cc3C3CC3)c2F)CC1` [Compound 99, 4-[(2-cyclopropyl-6-fluoro-4-{[(2Z)-imidazolidin-2-ylidene]carbamoyl}phenyl)amino]-3-fluoro-N-(1-methylcyclopropyl)pyridine-2-carboxamide], which EC50 is on record?
Answer: Its EC50 is 35.3 nM.

Question: With `CC1(NC(=O)c2nccc(Nc3ccc(C(=O)N=C4NCCN4)cc3C3CC3)c2Cl)CC1` [Compound 150, 3-chloro-4-[(2-cyclopropyl-4-{[imidazolidin-2-ylidene]carbamoyl}phenyl)amino]-N-(1-methylcyclopropyl)pyridine-2-carboxamide] as the compound, how does the EC50 read?
Answer: Its EC50 is 263 nM.

Question: How did the EC50 turn out when `O=C(N=C1NCCN1)c1cc(F)c(Nc2nccc(C(=O)N3CCOCC3)c2F)c(C2CC2)c1` [Compound 156, 3-cyclopropyl-5-fluoro-4-{[3-fluoro-4-(morpholine-4-carbonyl)pyridin-2-yl]amino}-N-[imidazolidin-2-ylidene]benzamide] was run?
Answer: The EC50 was 40.7 nM.

Question: `O=C(N=C1NCCN1)c1ccc(Nc2cccc(C(=O)NCCC3CCOCC3)c2)c(C2CC2)c1` [Compound 58, 3-cyclopropyl-N-[(2E)-imidazolidin-2-ylidene]-4-[(3-{[2-(oxan-4-yl)ethyl]carbamoyl}phenyl)amino]benzamide] was tested. Which EC50 did it give?
Answer: Its EC50 is 207 nM.

Question: `CC(C)N(C)C(=O)c1cccc(Nc2ccc(C(=O)N=C3NCCN3)cc2C(C)(C)C)c1` [Compound 38, 3-tert-butyl-N-[(2E)-imidazolidin-2-ylidene]-4-({3-[methyl(propan-2-yl)carbamoyl]phenyl}amino)benzamide] was tested. Which EC50 did it give?
Answer: The EC50 was 63.7 nM.

Question: `CC(C)NC(=O)c1ccccc1Nc1ccc(C(=O)N=C2NCCN2)cc1C1CC1` [Compound 70, 3-cyclopropyl-N-[(2E)-imidazolidin-2-ylidene]-4-({2-[(propan-2-yl)carbamoyl]phenyl}amino)benzamide] was tested. Which EC50 did it give?
Answer: The EC50 was 1150 nM.

Question: For `O=C(N=C1NCCN1)c1ccc(Nc2cccc(C(=O)N3CCS(=O)(=O)CC3)c2Cl)c(C2CC2)c1` [Compound 103, 4-{[2-chloro-3-(1,1-dioxo-1)^6-thiomorpholine-4-carbonyl)phenyl]amino}-3-cyclopropyl-N-[(2E)-imidazolidin-2-ylidene]benzamide], which EC50 is on record?
Answer: The EC50 was 19.4 nM.

Question: `CC(C)C1(NC(=O)c2cccc(Nc3ccc(C(=O)N=C4NCCN4)cc3C3CC3)c2)CC1` [Compound 7] was tested. Which EC50 did it give?
Answer: Its EC50 is 1.6 nM.

Question: Which EC50 does the source give for `CC(C)(C)c1cc(C(=O)N=C2NCCN2)ccc1Nc1cccc(C(=O)NCCC2CCOC2)c1` (stereo not drawn) [Compound 48, 3-tert-butyl-N-[(2E)-imidazolidin-2-ylidene]-4-[(3-{[2-(oxolan-3-yl)ethyl]carbamoyl}phenyl)amino]benzamide] here?
Answer: Its EC50 is 117 nM.

Question: How did the EC50 turn out when `CC(C)NC(=O)c1cccc(Nc2ccc(C(=O)/N=C3\NCC(=O)N3C)cc2C2CC2)c1` [Compound 61, 3-cyclopropyl-N-[(2E)-1-methyl-5-oxoimidazolidin-2-ylidene]-4-({3-[(propan-2-yl)carbamoyl]phenyl}amino)benzamide] was run?
Answer: The EC50 was 516 nM.

Question: For `CC(C)C1COCCN1C(=O)c1cccc(Nc2ccc(C(=O)N=C3NCCN3)cc2C2CC2)c1Cl` (stereo not drawn) [Compound 104, 4-({2-chloro-3-[3-(propan-2-yl)morpholine-4-carbonyl]phenyl}amino)-3-cyclopropyl-N-[(2Z)-imidazolidin-2-ylidene]benzamide], which EC50 is on record?
Answer: The EC50 was 12.4 nM.

Question: With `O=C(N=C1NCCN1)c1ccc(Nc2cccc(OCC3COCCO3)c2)c(C2CCCC2)c1` (stereo not drawn) [Compound 51, 3-cyclopentyl-4-({3-[(1,4-dioxan-2-yl)methoxy]phenyl}amino)-N-[(2E)-imidazolidin-2-ylidene]benzamide] as the compound, how does the EC50 read?
Answer: Its EC50 is 140 nM.
